Earlier results as cited in patent US12168000B2, “Methods of treating pain” (Scilex Holding Company, priority 2020, dated 2024).

What was measured:
[1] = hydrophobic and highly permeable drug
[2] = upon oral administration

Q: For `Cc1ccc(-c2cc(C(F)(F)F)nn2-c2ccc(S(N)(=O)=O)cc2)cc1` [Celecoxib, 4-[5-(4-methylphenyl)-3-(trifluoromethyl)-1H-pyrazol-1-yl] benzenesulfonamide], which “class of the biopharmaceutics classification system” value [1] is on record?
A: class II

Q: What about the “time for peak plasma concentrations” value [2] of the same compound?
A: approximately 3.0 hours
